Measured values: patent EP4799646A1, “COMPOSITION AND METHOD FOR INCREASING BIOAVAILABILITY OF ACTIVE INGREDIENT” (Everfront Biotech Inc., priority 2023, dated 2025)
In brackets after ≈: the same amount, converted by molar mass. Read-outs that look alike come from different tables or passages of the source.

Experiments:
[1] = Appearance (phase separation) of compositions after preparation; solubility of BP in sesame oil; type: physicochemical; conditions: concluded from absence of phase separation in Compositions 1 to 4
Procedure: In a glass bottle, components were mixed with the dosage ratios shown in Table 1 to provide a mixture, and the mixture was rapidly stirred with a magnetic stirrer for 20 minutes to form a homogeneous liquid, thereby respectively preparing Compositions 1 to 4. After removing the magnetic stirrer, the glass bottle was tightly sealed and its appearance was observed and photographed, the results are shown in FIG. 1. Table 1: Volume Percentages of Composition in Compositions 1 to 4.

[2] = system: pancreatic cancer cell lines Mia-PaCa2; assay: MTT assay, IC50 against pancreatic cancer cells (cytotoxicity study II); type: cell-based; conditions: Homo sapiens
Procedure: The culture medium in each well of the cell culture plates was removed, and MTT reagent was added (to reach a final concentration of 0.5 mg/mL in each well). The plates were then placed in a 37°C, 5% CO2 incubator for 2 to 4 hours to form purple needle-like formazan crystals. Subsequently, the solution was aspirated, and 500 µL of dimethyl sulfoxide (DMSO) was added to each well. After shaking with a shaker for 5 to 10 minutes to completely dissolve the purple crystals, the absorbance at a wavelength of 570 or 595 nm was measured using an ELISA reader. The survival rate of the cells was calculated based on the absorbance, with the blank group as the baseline (the survival rate of the blank group was set to 100%). The data of the experimental group serum collected 2 hours after oral administration of the soft capsules are shown in FIG. 7; the data of the experimental group serum collected at 1, 4, 8, or 24 hours are shown in FIG. 8.
Cell cultures in this example were all conducted in an environment of 95% relative humidity, 5% CO2, and 37°C.
Pancreatic cancer cell lines Mia-PaCa2 were grouped and respectively cultured in 96-well cell culture plates for 24 hours using the following culture media: • 1. "Z-BP" Group: Mia-PaCa2 cell culture medium supplemented with Z-BP. • 2. […]

With `CCCC=C1OC(=O)c2ccccc21` [BP, n-butylidenephthalide] as the compound, how does the “solubility in sesame oil” value [1] read?
The value was “good solubility”.

Which IC50 ([2]; MIA PaCa-2, Mia-PaCa2 cells, 24 hours, MTT, oil groups: active mixed with oil in equal proportions, read-out: IC50) does the source give for `CCC/C=C1\OC(=O)C2=C1CCC=C2` [LG, Ligustilide] here?
The IC50 was 44.1 µg/mL (≈ 232 µM).

For `CCC/C=C1\OC(=O)c2ccccc21` [Z-BP, (Z)-n-butylidenephthalide], which IC50 ([2]; MIA PaCa-2, 24 h) is on record?
Its IC50 is 63.8 µg/mL (≈ 339 µM).
